Measurements reported in patent US11547681B2, “N-acylethanolamide derivatives and uses thereof” (ELIEM THERAPEUTICS, INC., priority 2016, dated 2023).

How the values were obtained:
[1] = Intestinal S9 fraction stability, mouse
In short: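 Half-lives are based on fitting compound loss over 0, 10, 20, 30 and 60 min to a single exponential, with amounts expressed against the zero-time sample. Reactions hold 1 μM substrate in S9 at 37 °C, start on cofactor addition, and are stopped with cold acetonitrile containing formic acid.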

[2] = Intestinal S9 fraction stability, human; conditions: for microsomal CLint / half-life: both, human
In short: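 LC-MS/MS tracked both dosed prodrug and expected drug PEA over 60 min (0, 10, 20, 30, 60 min samples) at 37 °C. Incubations held 1 μM test article in intestinal S9, cofactor-initiated after warm-up, stopped with ice-cold acidified acetonitrile.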

[3] = control compound, mouse intestinal S9 fraction

Q: Which CLin [1, 3] does the source give for `C[C@]12CC[C@H]3[C@@H](CCC4=CC(=O)CC[C@@]43C)[C@@H]1CC[C@@H]2O` [Testosterone, testosterone, reference compound] here?
A: < 0.0116 ml/min/mg protein

Q: And the “CLin, calculated value in parentheses” value [1, 3]?
A: 0.00767 ml/min/mg protein

Q: What about the microsomal CLint ([1]; male, CD-1, mouse, s9, CLint (ml/min/mg protein), calculated value in parentheses, control compound, mouse intestinal S9 fraction, calculated value beyond duration of experiment) of the same compound?
A: 9.19 µL/min/mg

Q: What about the microsomal CLint ([1]; male, CD-1, mouse, s9, CLint (ml/min/mg protein), control compound, mouse intestinal S9 fraction) of the same compound?
A: < 11.6 µL/min/mg

Q: And the microsomal CLint ([1]; male, CD-1, mouse, s9, CLint, Control Compound, Mouse intestinal S9 fraction)?
A: < 11.6 µL/min/mg

Q: What about the microsomal CLint ([1]; male, CD-1, mouse, s9, CLint, Mouse intestinal S9 fraction, control compound) of the same compound?
A: < 11.6 µL/min/mg

Q: And the half-life ([1]; male, CD-1, mouse, s9, Half-life (min), calculated value in parentheses, control compound, mouse intestinal S9 fraction, calculated value beyond duration of experiment)?
A: 1.25 h

Q: What about the half-life ([1]; male, CD-1, mouse, s9, Half-life (min), control compound, mouse intestinal S9 fraction) of the same compound?
A: > 1 h

Q: And the half-life ([1]; male, CD-1, mouse, s9, Half-life, Control Compound, Mouse intestinal S9 fraction)?
A: > 1 h

Q: And the half-life at 1 μM ([1]; male, CD-1, mouse, s9, Half-life, Mouse intestinal S9 fraction)?
A: > 1 h

Q: What about the half-life ([1]; male, CD-1, mouse, s9, Half-life, calculated value in parentheses, control compound, mouse intestinal S9 fraction) of the same compound?
A: 1.5 h

Q: What about the half-life ([1]; male, CD-1, mouse, s9, Half-life, control compound, mouse intestinal S9 fraction) of the same compound?
A: > 1 h

Q: And the microsomal CLint ([2]; s9, CLint, Control Compound, Human intestinal S9 fraction)?
A: 50.9 µL/min/mg

Q: What about the microsomal CLint ([2]; s9, CLint, Human intestinal S9 fraction, control compound) of the same compound?
A: 50.9 µL/min/mg

Q: And the microsomal CLint ([2]; s9, Clint, control compound, Example 4 control run)?
A: 26.9 µL/min/mg

Q: And the half-life ([2]; s9, Half-life (min), control compound, human intestinal S9 fraction)?
A: 0.13 h

Q: And the half-life ([2]; s9, Half-life, control compound, Example 4 control run)?
A: 0.433 h

Q: And the half-life ([2]; s9, Half-life, control compound, human intestinal S9 fraction)?
A: 0.08 h

Q: What about the CLin ([2]; control compound, human intestinal S9 fraction) of the same compound?
A: 0.144 ml/min/mg protein
